pIC50: −log10 of the molar value.
Experiments:
Recombinant human FGFR1 = Recombinant human FGFR1 (Homo sapiens, UniProt P11362); assay: Transcreener Kinase Assay of FGFR1; assay type: biochemical; conditions: read-out: FGFR1 (FP) IC50
Recombinant human FGFR2 = Recombinant human FGFR2 (Homo sapiens, UniProt P21802); assay: Transcreener Kinase Assay of FGFR2; assay type: biochemical; conditions: read-out: FGFR2 (FP) IC50
FGFR3 kinase = FGFR3 kinase (Homo sapiens, UniProt P22607); assay: Z-Lyte Kinase Assay of FGFR3; assay type: biochemical
Summary of the method: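 FRET peptide-cleavage format: 1 h kinase reaction at RT (25-30[…]), then 1 h protease development, then stop and dual-emission read (Ex400, Em445/520 nm). Working solutions: kinase 0.7 μg/ml, Tyr 4 peptide 4 μM, ATP 300 uM in 1.33× buffer; eight compound concentrations from 1 μM, 2% DMSO final.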

KG-1 = assay: Cellular Proliferation Assay (Cell Counting Kit-8), KG-1; assay type: cell-based; conditions: Homo sapiens, KG1 cells, 72 hours
Summary of the method: (§1)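 Proliferation was read as OD at 450 nm after 1 h with CCK-8, following 72 h drug exposure at 37 °C, 5% CO2. Inhibition was calculated against cells in 0.5% DMSO minus medium blank, and the 50% point reported. The compound series (10–0.004 μM, pre-addition, in 5% DMSO) was added one day after plating KG-1, SNU-16 and RT-112 at 30,000, 5,000 and 1,000 cells/well respectively.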

SNU-16 = assay: Cellular Proliferation Assay (Cell Counting Kit-8), SNU-16; assay type: cell-based; conditions: Homo sapiens, SNU-16 cells, 72 hours
Summary of the method: as §1

RT-112 = assay: Cellular Proliferation Assay (Cell Counting Kit-8), RT-112; assay type: cell-based; conditions: Homo sapiens, RT-112 cells, 72 hours
Experimental: Cellular Proliferation Assay
• KG-1 (ATCC Accession No. CCL-246), • SNU-16 (ATCC Accession No. CRL-5974), • RT-112 (ECACC Accession No. 85061106)
• FGFR related cancer cell proliferation is measured in 96-well plates using Cell Counting Kit-8 (Dojindo CK04-13). • Seed 30000 cells/well of KG1, 5000 cells/well of SNU16, and 1000 cells/well of RT112 in a volume of 100 μL/well in growth media. • After 24 hours, dilute the compound to 10, 3.3, 1.1, 0.37, 0.12, 0.04, 0.013, 0.004 μM, keeping the DMSO concentration at 5%. • Add 10 μL of 8-point compound series to the wells of culturing cells. • Incubate at 37° C. and 5% CO2 for 72 hours • Add 10 μL/well of CCkit8 and incubate at 37° C. and 5% CO2 for an hour • Detect the optical density of each well at 450 nm on Labsystems Multiskan K3.
• ODcompound well represents the optical density of cells treated with compound. • ODcell well represents the optical density of cells without compounds treatment. (only 0.5% DMSO) • ODcontrol well represents the optical density of culture media background
The concentration of compound providing 50% of proliferation inhibition was calculated using Excel Fit.

Recombinant human FGFR1, sequence (P11362 22-822): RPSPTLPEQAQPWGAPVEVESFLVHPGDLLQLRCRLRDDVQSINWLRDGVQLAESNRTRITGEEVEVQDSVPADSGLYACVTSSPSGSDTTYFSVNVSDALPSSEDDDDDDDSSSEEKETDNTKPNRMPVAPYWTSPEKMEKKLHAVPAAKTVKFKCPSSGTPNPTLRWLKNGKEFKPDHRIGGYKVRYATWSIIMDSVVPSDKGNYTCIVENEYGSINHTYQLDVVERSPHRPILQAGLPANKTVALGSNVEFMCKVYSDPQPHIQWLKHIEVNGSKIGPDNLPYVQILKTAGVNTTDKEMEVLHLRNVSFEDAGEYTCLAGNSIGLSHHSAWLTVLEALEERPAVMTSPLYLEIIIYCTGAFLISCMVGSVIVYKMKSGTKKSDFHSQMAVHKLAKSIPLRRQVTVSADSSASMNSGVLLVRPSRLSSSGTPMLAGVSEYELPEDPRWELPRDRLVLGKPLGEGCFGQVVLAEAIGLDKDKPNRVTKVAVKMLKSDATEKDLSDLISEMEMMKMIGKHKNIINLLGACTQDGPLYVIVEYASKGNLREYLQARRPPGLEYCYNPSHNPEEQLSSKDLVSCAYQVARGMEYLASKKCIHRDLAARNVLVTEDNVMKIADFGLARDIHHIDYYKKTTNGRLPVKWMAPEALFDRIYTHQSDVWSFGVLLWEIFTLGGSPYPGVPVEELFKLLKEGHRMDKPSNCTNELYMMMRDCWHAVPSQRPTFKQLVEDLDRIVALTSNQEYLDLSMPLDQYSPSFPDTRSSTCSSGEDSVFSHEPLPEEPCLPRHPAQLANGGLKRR
Recombinant human FGFR2, sequence (P21802 22-821): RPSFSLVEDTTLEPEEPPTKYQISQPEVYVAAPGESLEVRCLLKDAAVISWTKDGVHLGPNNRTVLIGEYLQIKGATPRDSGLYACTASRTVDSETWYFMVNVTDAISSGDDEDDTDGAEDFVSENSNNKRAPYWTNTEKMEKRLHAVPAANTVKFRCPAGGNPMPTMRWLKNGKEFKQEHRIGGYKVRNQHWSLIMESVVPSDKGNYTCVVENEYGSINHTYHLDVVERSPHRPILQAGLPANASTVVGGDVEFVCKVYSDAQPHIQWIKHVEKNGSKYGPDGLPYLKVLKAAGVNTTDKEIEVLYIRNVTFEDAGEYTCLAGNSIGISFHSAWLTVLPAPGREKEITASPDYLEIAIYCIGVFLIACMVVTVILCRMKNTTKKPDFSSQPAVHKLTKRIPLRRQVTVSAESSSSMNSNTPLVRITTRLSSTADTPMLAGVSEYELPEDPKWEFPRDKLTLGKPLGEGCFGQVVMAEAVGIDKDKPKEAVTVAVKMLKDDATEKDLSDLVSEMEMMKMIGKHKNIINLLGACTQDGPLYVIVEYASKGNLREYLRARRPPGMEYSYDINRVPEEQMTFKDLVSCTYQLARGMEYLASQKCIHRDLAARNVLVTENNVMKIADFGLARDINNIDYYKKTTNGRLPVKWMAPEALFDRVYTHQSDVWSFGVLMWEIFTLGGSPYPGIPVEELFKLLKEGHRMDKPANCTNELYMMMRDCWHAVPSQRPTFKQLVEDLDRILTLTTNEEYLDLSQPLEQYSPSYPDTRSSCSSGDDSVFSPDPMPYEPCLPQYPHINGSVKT
FGFR3 kinase, sequence (P22607 23-806): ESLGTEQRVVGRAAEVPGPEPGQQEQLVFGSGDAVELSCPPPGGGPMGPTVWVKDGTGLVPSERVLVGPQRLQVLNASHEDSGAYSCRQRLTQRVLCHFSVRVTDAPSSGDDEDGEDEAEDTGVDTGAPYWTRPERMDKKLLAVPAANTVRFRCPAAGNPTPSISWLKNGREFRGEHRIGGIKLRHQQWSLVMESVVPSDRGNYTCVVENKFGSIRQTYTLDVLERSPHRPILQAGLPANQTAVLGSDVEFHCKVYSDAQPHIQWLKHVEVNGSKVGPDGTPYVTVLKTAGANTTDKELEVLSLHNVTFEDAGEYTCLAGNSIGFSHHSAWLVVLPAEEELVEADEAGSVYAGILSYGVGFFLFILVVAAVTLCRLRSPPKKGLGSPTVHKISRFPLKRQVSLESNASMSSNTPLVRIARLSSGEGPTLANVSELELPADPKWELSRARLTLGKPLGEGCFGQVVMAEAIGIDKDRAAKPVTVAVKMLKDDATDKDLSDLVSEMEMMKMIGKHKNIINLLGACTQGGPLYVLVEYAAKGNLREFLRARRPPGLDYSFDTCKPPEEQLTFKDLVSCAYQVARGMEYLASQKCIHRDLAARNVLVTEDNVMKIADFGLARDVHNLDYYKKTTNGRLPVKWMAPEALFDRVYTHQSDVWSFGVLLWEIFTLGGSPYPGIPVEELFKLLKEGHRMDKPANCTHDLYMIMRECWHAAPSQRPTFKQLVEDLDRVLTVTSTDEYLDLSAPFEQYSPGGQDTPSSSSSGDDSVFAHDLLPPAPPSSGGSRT

Row | Compound | pIC50 (Recombinant human FGFR1) | pIC50 (Recombinant human FGFR2) | pIC50 (FGFR3 kinase) | pIC50 (SNU-16) | pIC50 (KG-1) | pIC50 (RT-112)
1 | CNC(=O)c1cc(CCc2cnc(Nc3cccc(N4CCOCC4)c3)nc2)c(F)c(OC)c1 [Compound 38] | 8.10 | 8.52 | 7.70 | 7.52 | 7.55 | 7.07
2 | CCN1CCN(c2ccc(Nc3ncc(CCc4cc(C(=O)NC)cc(OC)c4C)cn3)cc2)CC1 [Compound 39] | 7.37 | 7.39 | 7.37 | 7.15 | 7.31 | 6.47
3 | CCN1CCN(c2ccc(Nc3ncc(CCc4cc(C(=O)NC)cc(OC)c4F)cn3)cc2)CC1 [Compound 44] | 8.30 | 8.40 | 8.05 | 7.82 | 8.05 | 7.29
4 | CNC(=O)c1cc(CCc2cnc(Nc3cnn(CCN4CCN(C)CC4)c3)nc2)c(F)c(OC)c1 [Compound 45] | 7.85 | 8.15 | 8.00 | 7.47 | 6.41 | 7.03
5 | CONC(=O)c1cc(CCc2cnc(Nc3ccc(N4C[C@@H](C)N[C@@H](C)C4)c(C)c3)nc2)cc(OC)c1 [Compound 49] | 8.22 | 8.30 | 8.10 | 7.74 | 7.12 | 7.21
6 | CCONC(=O)c1cc(CCc2cnc(Nc3ccc(N4CCN(CC)CC4)cc3)nc2)cc(OC)c1 [Compound 50] | 7.85 | 7.82 | 7.54 | 6.88 | 7.35 | 6.45
7 | CCN1CCN(c2ccc(Nc3ncc(CCc4cc(C(=O)NC)cc(OC)c4F)cn3)cc2)C[C@H]1C [Compound 53] | 8.30 | 8.40 | 8.10 | 7.72 | 7.85 | 7.31
8 | CONC(=O)c1cc(CCc2cnc(Nc3ccc(N4C[C@@H](C)N[C@@H](C)C4)c(F)c3)nc2)cc(OC)c1 [Compound 54] | 8.22 | 8.52 | 8.22 | 8.00 | 7.74 | 7.51
9 | CCN1CCN(c2ccc(Nc3ncc(CCc4cc(C(=O)NOC)cc(OC)c4F)cn3)cc2)CC1 [Compound 55] | 8.70 | 8.52 | 8.70 | 8.40 | 8.52 | 7.80
10 | CNC(=O)c1cc(CCc2cnc(Nc3ccnc(C)c3)nc2)c(F)c(OC)c1 [Compound 60, 4-fluoro-3-methoxy-N-methyl-5-(2-(2-((2-methylpyridin-4-yl)amino)pyrimidin-5-yl)ethyl)benzamide] | 7.80 | 8.15 | 7.64 | 7.34 | 7.29 | 6.86
11 | CNC(=O)c1cc(CCc2cnc(Nc3ccnc(OC)c3)nc2)c(F)c(OC)c1 [Compound 62] | 7.70 | 8.05 | 7.48 | 7.31 | 7.34 | 6.82
12 | CNC(=O)c1cc(CCc2cnc(Nc3cccnc3OC)nc2)c(F)c(OC)c1 [Compound 63] | 6.71 | 7.57 | 6.61 | 6.38 | 6.37 | 6.05
13 | CONC(=O)c1cc(CCc2cnc(Nc3ccc4nccn4c3)nc2)cc(OC)c1 [Compound 65] | 7.32 | 7.55 | 6.95 | 7.26 | 6.69 | 6.53
14 | CNC(=O)c1cc(CCc2cnc(Nc3ccn4ccnc4c3)nc2)c(F)c(OC)c1 [Compound 66] | 7.74 | 8.15 | 7.60 | 7.26 | 6.71 | 6.70
15 | CNC(=O)c1cc(CCc2cnc(Nc3ccc4nncn4c3)nc2)c(F)c(OC)c1 [Compound 67] | 7.43 | 7.57 | 7.36 | 7.15 | 7.05 | 6.58

Now from value to compound, other results behind:

Row | pIC50 (Recombinant human FGFR1) | pIC50 (Recombinant human FGFR2) | pIC50 (FGFR3 kinase) | pIC50 (SNU-16) | Compound | pIC50 (KG-1) | pIC50 (RT-112)
16 | 7.38 | 7.70 | 7.38 | 7.07 | CNC(=O)c1cc(CCc2cnc(Nc3ccc4nnc(C)n4c3)nc2)c(F)c(OC)c1 [Compound 69] | 6.57 | 6.47
17 | 6.90 | 7.28 | 6.23 | 6.15 | CNC(=O)c1cc(CCc2cnc(Nc3nc(C4CC4)cs3)nc2)c(Cl)c(OC)c1 [Compound 71] | 6.40 | 7.00
18 | 7.24 | 7.62 | 7.42 | 7.03 | CNC(=O)c1cc(CCc2cnc(Nc3ccc4nnc(COC)n4c3)nc2)c(F)c(OC)c1 [Compound 72] | 6.71 | 6.26
19 | 8.30 | 8.40 | 8.10 | 7.80 | CCN1CCN(c2cc(Nc3ncc(CCc4cc(OC)cc(C(=O)NOC)c4)cn3)ccn2)CC1 [Compound 76] | 7.37 | 7.17
20 | 8.22 | 8.22 | 8.22 | 7.85 | CNC(=O)c1cc(CCc2cnc(Nc3ccc(N4C[C@@H](C)N[C@@H](C)C4)cc3)nc2)c(Cl)c(OC)c1 [Compound 79, 4-chloro-3-(2-(2-((4-((3S,5R)-3,5-dimethylpiperazin-1-yl)phenyl)amino)pyrimidin-5-yl)ethyl)-5-methoxy-N-methylbenzamide] | 7.89 | 7.47
21 | 7.62 | 7.80 | 7.72 | 7.41 | CCn1cc(Nc2ncc(CCc3c(F)c(C(=O)NC)cc(OC)c3Cl)cn2)cn1 [Compound 80] | 7.48 | 7.62
22 | 8.10 | 8.30 | 7.96 | 7.60 | CNC(=O)c1cc(CCc2cnc(Nc3cnn(C4CCC4)c3)nc2)c(Cl)c(OC)c1 [Compound 81] | 7.80 | 8.00
23 | 7.82 | 8.05 | 7.46 | 7.26 | CCn1cc(Nc2ncc(CCc3cc(C(=O)NC)cc(OC)c3Br)cn2)cn1 [Compound 83] | 7.28 | 6.70
24 | 7.72 | 8.15 | 7.80 | 6.62 | CNC(=O)c1cc(CCc2cnc(Nc3ccc4c(C)n(C)nc4c3)nc2)c(Cl)c(OC)c1 [Compound 84] | 6.61 | 6.91
25 | 7.82 | 8.05 | 7.77 | 7.03 | CNC(=O)c1cc(CCc2cnc(Nc3ccc(N4CCOCC4)cc3)nc2)c(Cl)c(OC)c1 [Compound 85] | 7.52 | 7.59
26 | 7.77 | 8.00 | 8.00 | 7.80 | CCN(CC)CCn1cc(Nc2ncc(CCc3cc(C(=O)NC)cc(OC)c3Cl)cn2)cn1 [Compound 86] | 7.38 | 7.92
27 | 8.00 | 8.00 | 7.44 | 7.30 | CCN1CCN(c2ccc(Nc3ncc(/C=C/c4cc(C(=O)NC)cc(OC)c4F)cn3)cc2)CC1 [Compound 87] | 7.60 | 7.08
28 | 7.82 | 8.22 | 8.05 | 7.89 | CCN(CC)CCCn1cc(Nc2ncc(CCc3cc(C(=O)NC)cc(OC)c3Cl)cn2)cn1 [Compound 88] | 6.67 | 7.57
29 | 7.92 | 8.10 | 8.10 | 7.54 | CNC(=O)c1cc(CCc2cnc(Nc3cnn(CCN4CCN(C)CC4)c3)nc2)c(Cl)c(OC)c1 [Compound 89] | 6.89 | 7.34
30 | 7.96 | 8.30 | 8.15 | 8.05 | CNC(=O)c1cc(CCc2cnc(Nc3ccc(C(=O)N4CCN(C)CC4)cc3)nc2)c(Cl)c(OC)c1 [Compound 90] | 7.51 | 7.59
31 | 7.70 | 7.80 | 7.77 | 7.72 | CNC(=O)c1cc(OC)c(Cl)c(CCc2cnc(Nc3ccc(N4C[C@@H](C)N[C@@H](C)C4)cc3)nc2)c1F [Compound 91] | 7.49 | 7.19

— US20160052926A1, “NOVEL PYRIMIDINE AND PYRIDINE COMPOUNDS AND USAGE THEREOF” (HUTCHISON MEDIPHARMA LIMITED, priority 2013, published 2016)
